Measurements taken from US9556169B2, “Compounds and compositions for the treatment of parasitic diseases” (NOVARTIS AG, priority 2012, dated 2017).
Where two headings read alike, the source gives them in different places.

Key:
[1] = system: P. falciparum (NF54 or 3D7 strain); test: P. falciparum proliferation assay in infected human blood cells (SYBR Green); format: cell-based; settings: Plasmodium falciparum, Erythrocyte, read-out: EC50 (nM), inhibitory efficacy in delaying P. falciparum proliferation in infected human blood cells
Procedure: Assay for P. falciparum Proliferation in Infected Human Blood Cells
Compounds of the invention can be assayed to measure their capacity to inhibit proliferation of P. falciparum parasitemia in infected red blood cells. This parasite proliferation assay measures the increase in parasite DNA content using a DNA intercalating dye, SYBR Green® (INVITROGEN®) which has a high affinity for double stranded DNA.
NF54 or 3D7 P. falciparum strain is grown in complete culturing media until parasitemia reaches 3% to 8% with O+ human erythrocytes. […] 20 μl of screening media is dispensed into 384 well assay plates. 50 nl of compounds of the invention (in DMSO), including antimalarial controls (mefloquine, pyrimethamine and artemisinin), are then transferred into the assay plates, as well as DMSO alone to serve as a negative control for inhibition. Then 30 μl of a suspension of a NF54 or 3D7 P. falciparum infected erythrocytes in screening media is dispensed into the assay plates such that the final hematocrit is 2.5% with a final parasitemia of 0.3%. The plates are placed in a 37° C. incubator for 72 hours in a low oxygen environment containing 93% N2, 4% CO2, and 3% O2 gas mixture. 10 μl of lysis buffer (saponin, triton-X, EDTA) containing a 10× solution of SYBR Green I® in RPMI media is dispensed into the plates. The plates are lidded and kept at room temperature overnight for the lysis of the infected red blood cells. The fluorescence intensity is measured (excitation 425 nm, emission 530 nm) using the Envision™ system (Perkin Elmer). The percentage inhibition of 50%, EC50, is calculated for each compound.

[2] = system: Plasmodium berghei line expressing luciferase (Pb-luc) sporozoites; test: Liver stage P. berghei luciferase proliferation assay in CD81-GFP-HepG2 cells; format: cell-based
Procedure: Liver Stage P. berghei Luciferase Proliferation Assay
CD81-GFP-HepG2 cells (obtained from the lab of Dominique Mazier) were seeded into GNF custom Greiner plates (1536-well, white, TC-treated, solid bottom). A final density of 3000 cells/well was achieved by dispensing 5 ul per well of a 600,000 cells/mL resuspended in Assay Media (AM; phenol-red free DMEM, 2% FBS, 5×PSG) via a MicroFlo (Biotek; 5 ul dispense cassette). The seeded assay plates were incubated overnight at 37° C. in an incubator with 5% CO2. The following day, a 10 nL volume of compound was transferred acoustically (ECHO 525, Labcyte Inc.) to each well in the assay plate. Sporozoite forms of a Plasmodium berghei line expressing luciferase (Pb-luc) were dissected and purified from infected Anopheles stephensi mosquitoes (provided by the NYU insectary) as previously described by Meister et al. (Science, 2011). Purified sporozoites (spz) were stored at 250 spz/uL in chilled PBS supplemented with 3% BSA. 3 uL of Pb-luc spz solution was dispensed to each assay well using a Bottlevalve equipped with a custom, single-tip dispense head (GNF Systems). Assay plates were centrifuged at 330×g for 3 minutes to pellet the spz, then the assay plates were returned to the 37° C. incubator for 48 h. Luciferase signal, which corresponds with parasite proliferation, was detected by adding 2 uL of BrightGlo (Promega) to each well using the MicroFlo (Biotek; 1 ul cassette). Luminescence was immediately measured on an Envision MultiLabel Plate Reader (PerkinElmer).

[3] = infected human erythrocytes, 72 hours, SYBR Green fluorescence
[4] = read-out: EC50, P. berghei luciferase Proliferation Assay
[5] = values marked * in Table 2, CD81-GFP-HepG2 cells, 48 h, luminescence, read-out: EC50 (nM), P. berghei luciferase Proliferation Assay

Compound	EC50 [1, 3] [nM]	EC50 [2, 4] [nM]	EC50 [2, 5] [nM]	EC50 ([1]; 72 h) [nM]
CNC(=O)c1ccc(-c2cnn3ccc(C(=O)N(NC)c4ccc(C#N)cc4)cc23)cn1 [Example 92, 5-(5-(1-(4-cyanophenyl)-2-methylhydrazinecarbonyl)pyrazolo[1,5-a]pyridin-3-yl)-N-methyl picolinamide]	24	≤ 20	15	–
CNC(=O)c1ccc(-c2cnn3ccc(N(C)C(=O)c4ccc(C#N)cn4)cc23)cc1 [Example 94, 5-cyano-N-methyl-N-(3-(4-(methylcarbamoyl)phenyl)pyrazolo[1,5-a]pyridin-5-yl)picolinamide]	17	≤ 20	13	–
CCN(C(=O)c1ccn2ncc(-c3ccc(C(=O)NC)cc3)c2c1)c1ccc(F)cn1 [Example 95, N-ethyl-N-(5-fluoropyridin-2-yl)-3-(4-(methylcarbamoyl)phenyl)pyrazolo[1,5-a]pyridine-5-carboxamide]	23	≤ 20	5	–
CCN(C(=O)c1ccn2ncc(-c3ccc(C(=O)NC)cc3)c2c1)c1ccc(C(F)(F)F)cn1 [Example 96, N-ethyl-3-(4-(methylcarbamoyl)phenyl)-N-(5-(trifluoromethyl)pyridin-2-yl)pyrazolo[1,5-a]pyridine-5-carboxamide]	12	≤ 20	4	–
CNC(=O)c1ccc(-c2cnn3ccc(C(=O)N(c4ccc(C#N)cn4)C4CC4)cc23)nc1 [Example 133, N-(5-Cyanopyridin-2-yl)-N-cyclopropyl-3-(5-(methylcarbamoyl)pyridin-2-yl)pyrazolo[1,5-a]pyridine-5-carboxamide]	58	–	34	–
CNC(=O)c1ccc(-c2cnn3ccc(C(=O)N(c4ccc(C)cn4)C4CC4)cc23)cc1 [Example 136, N-Cyclopropyl-3-(4-(methylcarbamoyl)phenyl)-N-(5-methylpyridin-2-yl)pyrazolo[1,5-a]pyridine-5-carboxamide]	–	–	10	–
CNC(=O)c1ccc(-c2cnn3ccc(C(=O)N(c4ccc(C#N)cc4)C4CC4)cc23)cn1 [Example 137, N-(4-Cyanophenyl)-N-cyclopropyl-3-(6-(methylcarbamoyl)pyridin-3-yl)pyrazolo[1,5-a]pyridine-5-carboxamide]	12	–	10	–
CNC(=O)c1ccc(-c2cnn3ccc(C(=O)N(c4ccc(C#N)cc4)C4CC4)cc23)nc1 [Example 141, N-(4-Cyanophenyl)-N-cyclopropyl-3-(5-(methylcarbamoyl)pyridin-2-yl)pyrazolo[1,5-a]pyridine-5-carboxamide]	–	–	17	65
CNC(=O)c1ccc(-c2cnn3ccc(C(=O)N(c4ccc(Cl)cc4)C4CC4)cc23)cn1 [Example 143, N-(4-Chlorophenyl)-N-cyclopropyl-3-(6-(methylcarbamoyl)pyridin-3-yl)pyrazolo[1,5-a]pyridine-5-carboxamide]	12	–	7	–
CNC(=O)c1ccc(-c2cnn3ccc(C(=O)N(c4ccc(C#N)cn4)C4CCC4)cc23)cn1 [Example 144, N-(5-Cyanopyridin-2-yl)-N-cyclobutyl-3-(6-(methylcarbamoyl)pyridin-3-yl)pyrazolo[1,5-a]pyridine-5-carboxamide]	27	–	22	–
CNC(=O)c1ccc(-c2cnn3ccc(C(=O)N(c4ccc(C#N)cc4)C4CCC4)cc23)cn1 [Example 145, N-(4-Cyanophenyl)-N-cyclobutyl-3-(6-(methylcarbamoyl)pyridin-3-yl)pyrazolo[1,5-a]pyridine-5-carboxamide]	12	–	8	–
CNC(=O)c1ccc(-c2cnn3ccc(C(=O)N(c4ccc(C#N)cc4)C(C)C)cc23)cn1 [Example 146, N-(4-Cyanophenyl)-N-isopropyl-3-(6-(methylcarbamoyl)pyridin-3-yl)pyrazolo[1,5-a]pyridine-5-carboxamide]	45	–	20	–
CNC(=O)c1ccc(-c2cnn3ccc(N(C(=O)c4ccc(C#N)cn4)C4CC4)cc23)cc1 [Example 147, 5-Cyano-N-cyclopropyl-N-(3-(4-(methylcarbamoyl)phenyl)pyrazolo[1,5-a]pyridin-5-yl) picolinamide]	814	–	151	–
CNC(=O)c1ccc(-c2cnn3ccc(C(=O)N(c4ccc(C#N)cn4)C(C)C)cc23)cn1 [Example 148, N-(5-Cyanopyridin-2-yl)-N-isopropyl-3-(6-(methylcarbamoyl)pyridin-3-yl)pyrazolo[1,5-a]pyridine-5-carboxamide]	67	–	18	–
CNC(=O)c1ccc(-c2cnn3ccc(C(=O)N(c4ccc(C#N)c(OC)n4)C4CC4)cc23)cc1 [Example 149, N-(5-Cyano-6-methoxypyridin-2-yl)-N-cyclopropyl-3-(4-(methylcarbamoyl)phenyl)pyrazolo[1,5-a]pyridine-5-carboxamide]	4	–	1	–
CCN(C(=O)c1ccn2ncc(-c3ccc(C(=O)NC)nc3)c2c1)c1ccc(C#N)cn1 [Example 150, N-(5-cyanopyridin-2-yl)-N-ethyl-3-(6-[methylcarbamoyl]pyridin-3-yl)pyrazolo[1,5-a]pyridine-5-carboxamide]	51	–	19	–
CNC(=O)c1ccc(-c2cnn3ccc(C(=O)N(c4ccc(F)cn4)C(C)C)cc23)cc1 [Example 151, N-(5-fluoropyridin-2-yl)-N-isopropyl-3-(4-(methylcarbamoyl)phenyl)pyrazolo[1,5-a]pyridine-5-carboxamide]	67	–	7	–
CNC(=O)c1ccc(-c2cnn3ccc(C(=O)N(c4ccc(C(F)(F)F)cn4)C(C)C)cc23)cn1 [Example 152, N-Isopropyl-3-(6-(methylcarbamoyl)pyridin-3-yl)-N-(5-(trifluoromethyl)pyridin-2-yl)pyrazolo[1,5-a]pyridine-5-carboxamide]	228	–	182	–
CNC(=O)c1ccc(-c2cnn3ccc(C(=O)N(c4ccc(C(F)(F)F)cn4)C(C)C)cc23)cc1 [Example 153, N-Isopropyl-3-(4-(methylcarbamoyl)phenyl)-N-(5-(trifluoromethyl)pyridin-2-yl)pyrazolo[1,5-a]pyridine-5-carboxamide]	88	–	16	–
CNC(=O)c1ccc(-c2cnn3ccc(C(=O)N(c4ccc(C#N)cn4)C(C)C)cc23)nc1 [Example 154, N-(5-cyanopyridin-2-yl)-N-isopropyl-3-(5-(methylcarbamoyl)pyridin-2-yl)pyrazolo[1,5-a]pyridine-5-carboxamide]	–	–	36	200
CNC(=O)c1ccc(-c2cnn3ccc(C(=O)N(c4ccc(C#N)cn4)C4CCC4)cc23)nc1 [Example 155, N-(5-Cyanopyridin-2-yl)-N-cyclobutyl-3-(5-(methylcarbamoyl)pyridin-2-yl)pyrazolo[1,5-a]pyridine-5-carboxamide]	–	–	21	82
CNC(=O)c1ccc(-c2cnn3ccc(C(=O)N(c4ccc(F)cn4)C(C)C)cc23)cn1 [Example 156, N-(5-fluoropyridin-2-yl)-N-isopropyl-3-(6-(methylcarbamoyl)pyridin-3-yl)pyrazolo[1,5-a]pyridine-5-carboxamide]	210	–	54	–
CCN(C(=O)c1ccn2ncc(-c3ccc(C(=O)NC)nc3)c2c1)c1ccc(C(F)(F)F)cn1 [Example 157, N-ethyl-3-(6-(methylcarbamoyl)pyridin-3-yl)-N-(5-(trifluoromethyl)pyridin-2-yl)pyrazolo[1,5-a]pyridine-5-carboxamide]	91	–	60	–
CCN(C(=O)c1ccn2ncc(-c3ccc(S(C)(=O)=O)cc3)c2c1)c1ccc(C#N)cn1 [Example 158, N-(5-cyanopyridin-2-yl)-N-ethyl-3-(4-(methylsulfonyl)phenyl)pyrazolo[1,5-a]pyridine-5-carboxamide]	111	–	11	–
